# ChEMBL document CHEMBL1201862, “PubChem BioAssay data set” (2004)
#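 Briefly, cells in 96-well plates were exposed to five compound concentrations for 48 h, and endpoints were estimated by linear interpolation. GI50 = concentration required for 50% inhibition of growth.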 Calls of active or inactive are those of the source. Rule as the data show it: active = GI50 up to about 1.1 µM and inactive = higher.
# Tests used:
# Assay in all cases: NCI tumour cell line growth inhibition, 48 h
# SF-539 = system: SF-539
# UACC-62 = system: UACC-62
# SR = system: SR
# Malme-3M = system: Malme-3M
# SN12C = system: SN12C
# SK-OV-3 = system: SK-OV-3
# NCI-H522 = system: NCI-H522
# OVCAR-4 = system: OVCAR-4
# HCT-15 = system: HCT-15
# SNB-75 = system: SNB-75
# HCT-116 = system: HCT-116
# SF-268 = system: SF-268
# HOP-92 = system: HOP-92
# TK-10 = system: TK-10
# U-251 = system: U-251
# SNB-19 = system: SNB-19
# SF-295 = system: SF-295
# A498 = system: A498
# CAKI-1 = system: CAKI-1
SMILES,GI50 (SF-539),GI50 (UACC-62),GI50 (SR),GI50 (Malme-3M),GI50 (SN12C),GI50 (SK-OV-3),GI50 (NCI-H522),GI50 (OVCAR-4),GI50 (HCT-15) [µM],GI50 (SNB-75),GI50 (HCT-116),GI50 (SF-268),GI50 (HOP-92),GI50 (TK-10),GI50 (U-251),GI50 (SNB-19),GI50 (SF-295),GI50 (A498),GI50 (CAKI-1)
CC[n+]1c(/C=C/c2cc(C(=O)OC)n3c2sc2ccccc23)sc2ccccc21,18.2 µM (inactive),0.394 µM (active),> 10 µM (inactive),16.7 µM (inactive),23.1 µM (inactive),17.9 µM (inactive),15.6 µM (inactive),17.8 µM (inactive),18.8,15.7 µM (inactive),14.5 µM (inactive),21.5 µM (inactive),15.5 µM (inactive),,,,,,
COC(=O)[C@]12CSCN1C(=O)C(C(C)=O)=NN2C(=O)[C@](OC)(c1ccccc1)C(F)(F)F,> 100 µM (inactive),> 100 µM (inactive),> 10 µM (inactive),> 100 µM (inactive),> 100 µM (inactive),,88.7 µM (inactive),> 100 µM (inactive),> 100,8.17 µM (inactive),> 100 µM (inactive),> 100 µM (inactive),,> 100 µM (inactive),> 100 µM (inactive),> 100 µM (inactive),> 100 µM (inactive),,
O=C(Nc1ccc(Cl)cc1)/C(Cc1cccc[n+]1[O-])=N\Nc1ccc([N+](=O)[O-])cc1[N+](=O)[O-],> 100 µM (inactive),> 100 µM (inactive),,> 100 µM (inactive),> 100 µM (inactive),> 100 µM (inactive),> 100 µM (inactive),> 100 µM (inactive),> 100,> 100 µM (inactive),> 100 µM (inactive),> 100 µM (inactive),> 100 µM (inactive),> 100 µM (inactive),> 100 µM (inactive),> 100 µM (inactive),> 100 µM (inactive),> 100 µM (inactive),> 100 µM (inactive)
Brc1ccc(N2C[N+](c3ccc(Br)cc3)=NC(c3ccccc3)=N2)cc1.[O-][Cl+3]([O-])([O-])[O-],> 100 µM (inactive),> 100 µM (inactive),,> 100 µM (inactive),> 100 µM (inactive),> 100 µM (inactive),36 µM (inactive),> 100 µM (inactive),> 100,> 100 µM (inactive),49.2 µM (inactive),99.3 µM (inactive),77.1 µM (inactive),> 100 µM (inactive),> 100 µM (inactive),> 100 µM (inactive),29.4 µM (inactive),> 100 µM (inactive),> 100 µM (inactive)
CN1C2(c3ccccc3)c3c(-c4ccccc4)sc(-c4ccccc4)c3C1(c1ccccc1)C1C(=O)N(c3ccccc3)C(=O)C12 (stereo not given),> 100 µM (inactive),> 100 µM (inactive),,> 100 µM (inactive),> 100 µM (inactive),> 100 µM (inactive),> 100 µM (inactive),> 100 µM (inactive),,> 100 µM (inactive),> 100 µM (inactive),> 100 µM (inactive),> 100 µM (inactive),> 100 µM (inactive),> 100 µM (inactive),> 100 µM (inactive),> 100 µM (inactive),> 100 µM (inactive),> 100 µM (inactive)
Cc1cc(N)c(C)c2c1[nH]c1ccc(O)cc12,> 100 µM (inactive),,45 µM (inactive),> 100 µM (inactive),> 100 µM (inactive),,17 µM (inactive),> 100 µM (inactive),> 100,,> 100 µM (inactive),> 100 µM (inactive),,66.8 µM (inactive),88.5 µM (inactive),> 100 µM (inactive),> 100 µM (inactive),,> 100 µM (inactive)
NS(=O)(=O)c1cc(S(N)(=O)=O)c(NC(=O)Nc2ccc(Cl)c(Cl)c2)c(Cl)c1Cl,,> 100 µM (inactive),> 100 µM (inactive),,> 100 µM (inactive),> 100 µM (inactive),> 100 µM (inactive),> 100 µM (inactive),> 100,,> 100 µM (inactive),> 100 µM (inactive),4.18 µM (inactive),> 100 µM (inactive),> 100 µM (inactive),> 100 µM (inactive),> 100 µM (inactive),,> 100 µM (inactive)
